Measured values from patent US11414387B2, “Oxoacridinyl acetic acid derivatives and methods of use” (Stingthera, Inc., priority 2017, dated 2022).

Assays:
hSTING-CTD = hSTING-CTD (Homo sapiens (Human), UniProt Q86WV6); assay: Human STING protein FP competition concentration response assay; type: binding
Experimental: A validated STING ligand, such as c-di-GMP, which is labeled with a read-out signal (e.g., a fluorescence signal such as fluorescein), is mixed with STING-CTD (e.g., mouse STING-CTD or human STING-CTD) with or without the presence of a compound of the present application. Changes in the read-out signal are measured (e.g., by fluorescence anisotropy) to determine the binding of the compound to STING-CTD.
Fluorescein labeled c-di-GMP, a validated STING ligand, was mixed with recombinant hSTING-CTD in a homogenous assay format with or without the presence of a compound of the present application (titrated) in PBS in black 384-well plates (10 μL per well). The fluorescence anisotropy was determined on a PerkinElmer EnVisions multi-mode plate reader. The plate can be read immediately after mixing the reagents or after a few hours without change of signals.
• 1) hSTING (Supplier: HDB) • 2) 2′-Fluo-AHC-c-di GMP (BIOLOG #F009) • 3) 2′3′-cGAMP (BIOLOG #C161) • 4) DMXAA (InvivoGen #tlrl-dmx) • 5) DMSO (Sigma, #D5879-100 mL) • 6) 10×PBS(HDB #MCP-020) • 7) Assay plate, 384-well black plate, solid black bottom (Greiner #784076) • 8) Compound dilution intermediate plate, 384 LDV plate (Labcyte #LP-0200) • 9) Liquid handler, ECHO550 (Labcyte) • 10) Liquid handler, Bravo (Aglient) • 11) Reader, Envision (PerkinElmer) • 12) Centrifuge (Eppendorf) • 13) Multichannel Pipette (Raining) • 14) 10 ml Reservoir (Corning) • 15) 15 ml centrifuge tube (Corning) • 16) Adhesive Plate seals (BioRad) Compound Preparation • a) Containers of each compound were centrifuged at 1000 rpm for 5 min. • b) Compounds were dissolved in DMSO at 30 mM. • c) Compounds were sufficiently vortexed, and centrifuged at 1000 rpm for 1 min. • d) 16 uL of the compound solution was transferred into a LDV Compound Plate. • e) 2-fold serial dilutions of the compound solution were made with DMSO, and 14 concentrations were made in the 384-well LDV Compound Plate. • f) The LDV plate was spun at 1000 rpm for 60 sec and sealed with foil (stored at −20° C. if not used immediately). • g) 335 nL of each compound from the LDV Compound Plate was transferred to Assay Plate (ECHO550). Probe Preparation • a) 200 uM probe stock (2′-Fluo-AHC-c-diGMP) was diluted by ddH2O to 6 uM working concentration. • b) 10-12 uL 6 uM working solution of probe was transferred into the LDV plate. • c) 50 nL per well 6 uM working solution of probe was transferred from the LDV plate to each well of the empty Assay Plate (Greiner 784076) by ECHO550 Buffer mode. • d) Probe final concentration was 30 nM when assay system was 10 uL. • e) The Assay Plate was spun at 1000 rpm for 1 min. Compound Addition • a) After the LDV Compound Plate was prepared, 335 nL compound (ECHO550 DMSO mode) was transferred from the LDV Compound Plate into the Assay Plate (Greiner 784076) containing 50 nL probe in each well according to the Assay Plate layout. • b) DMSO final concentration was 3.35% when assay system was 10 uL. • c) The Assay Plate was spun at 1000 rpm for 1 min. Protein Addition • a) Aliquot of hSTING protein was thawed on ice, briefly to generate uniform solution. • b) 55 uM stock protein was diluted in 1×PBS assay buffer to generate 10 uM final solutions. • c) For test compound and ZPE wells, 10 μL per well of 10 uM protein solutions was added into the Assay Plate containing both the probe and test compounds or DMSO using multichannel pipette. • d) For HPE wells, 10 μL/well of 1×PBS assay buffer instead of protein was added into the Assay Plate containing both the probe and DMSO using multichannel pipette. • e) The Assay Plate was spun at 1000 rpm for Imin. • f) The Assay Plate was incubated at r.t. for 10-20 min.
The EnVision plate reader was used to record the FA value of each well immediately after mixing the reagents or after a few hours without change of signals.
The raw data and calculated data (Fluorescence anisotropy (FA)) was exported from the EnVision reader. […]

STING protein = STING protein (Homo sapiens (Human), UniProt Q86WV6, H232R); assay: Cell based reporter assay of IRF activation (IRF-luciferase), THP1-dual-KI R232; details: read-out: THP1-dual-KI R232_IRF(Luciferase)_Activity Maximum measured (%)
Source text: Briefly, THP-1 monocytes were transfected and selected for stable integration of 2 reporter constructs. Clones incorporating stably integrated vectors were further selected by antibiotic resistance to blastocidin and zeocin. The reporter constructs included: (1) firefly luciferase reporter gene under the control of an ISG54 promoter fused to five interferon (IFN)-stimulated response elements to measure IRF transcription factor binding activity and (2) secreted embryonic alkaline phosphatase reporter gene under transcription control of an IFN-beta minimal promoter fused to 5 copies of the NFkB consensus transcriptional response element and 3 copies of the c-Rel binding site.
The resulting THP-1 cell line was further modified to incorporate 3 amino acid point mutations (H71R A230G Q293R). This modification of the native TMEM173 gene in THP-1 cells (HAQ) was designed to produce a cell reporter that expressed the most common allelic variant in the human population (THP-1 R232, available from InvivoGen). Alternatively, the TMEM173 gene was knocked out to provide a congenic control to counter-screen for compound activation that was independent of the STING protein (THP-1 STING KO).
Once cell lines were established, reporter assay protocols were developed and optimized to screen small molecule compounds for agonist activity. Assay optimization for efficacy and Z′ value included titration of the following parameters:
• 1. Cell pre-activation with PMA • 2. Cell seeding density • 3. DMSO tolerance • 4. Media selection • 5. FBS concentration • 6. Incubation time • 7. Co-Assessment of cell viability by CTG assay • 8. Appropriate HPE and ZPE controls • 9. Dose Response Titration Final Assay SOP Conditions • 1. No pre-activation with PMA • 2. 5×10^4 cells/well in 96 well plate format • 3. <0.5% DMSO • 4. […] 10% FBS • 6. 14-18 hr incubation • 7. Cell Titer Glo reagent (Promega) following supernatant removal • 8.

hSTING-WT = hSTING-WT (Homo sapiens (Human), UniProt Q86WV6, H232R); assay: Radiometric filtration binding competition assay, hSTING-WT
Experimental: A radiometric filtration binding competition assay was performed to quantify the binding affinity of compounds of the present application for the human or mouse STING protein, or associated HAQ human isoform. […] The resulting dose response was fit by non-linear regression to determine an IC50 value, from which a Ki value for each compound was extrapolated.
The resulting complexes were then filtered, dried, and scintillation fluid was added and the remaining radio signal was measured to determine the degree of compound ligand inhibition. This assay format was optimized for both the WT and HAQ isoforms of the human protein and the mouse orthologue protein.
Probe Concentration: Minimum concentration that achieved max assay window • g. Assay Format: Scintillation Proximity Bead or Filtration Binding Plate • h. […] Assay incubation times for successive incubation steps
WT-hSWAT: WT_FBA_HIS-SUMO-hSWAT IC50 (μM) (“WT”=Wild-type); HAQ-hSWAT: HAQ_FBA_HIS-SUMO-hSWAT IC50 (μM) (“HAQ”=human HAQ allele of STING protein); and WT-mSWAT: MOUSE_FBA_HIS-SUMO-mnSWAT IC50 (μM) which is the mouse isoform of STING protein.

hSTING-R232 = hSTING-R232 (Homo sapiens (Human), UniProt Q86WV6, H232R); assay: STING differential scanning fluorimetry (DSF) assay, WT human STING; details: WT (R232) human STING aa140-379, net shift in melting temperature
mSTING-R232 = mSTING-R232 (Mus musculus, UniProt Q3TBT3); assay: STING differential scanning fluorimetry (DSF) assay, mouse STING; details: net shift in melting temperature

STING protein, sequence (Q86WV6 whole entry H232R): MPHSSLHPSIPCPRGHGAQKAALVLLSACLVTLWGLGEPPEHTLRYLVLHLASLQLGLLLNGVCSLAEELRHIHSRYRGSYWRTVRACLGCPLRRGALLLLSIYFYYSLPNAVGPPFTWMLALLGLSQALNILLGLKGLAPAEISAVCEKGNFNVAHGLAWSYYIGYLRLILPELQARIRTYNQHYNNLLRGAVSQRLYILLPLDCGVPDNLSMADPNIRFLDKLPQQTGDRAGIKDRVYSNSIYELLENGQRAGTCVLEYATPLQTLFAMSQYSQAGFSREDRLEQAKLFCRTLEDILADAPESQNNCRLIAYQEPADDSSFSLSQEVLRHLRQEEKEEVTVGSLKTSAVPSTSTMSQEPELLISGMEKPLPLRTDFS
hSTING-CTD, sequence (Q86WV6 135-379): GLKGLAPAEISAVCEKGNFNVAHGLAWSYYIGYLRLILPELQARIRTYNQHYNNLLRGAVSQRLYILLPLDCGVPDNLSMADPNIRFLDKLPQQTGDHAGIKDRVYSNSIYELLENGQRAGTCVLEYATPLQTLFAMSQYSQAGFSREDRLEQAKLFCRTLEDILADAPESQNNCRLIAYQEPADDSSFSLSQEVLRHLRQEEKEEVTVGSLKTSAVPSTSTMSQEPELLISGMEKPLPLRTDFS
hSTING-WT, sequence (Q86WV6 140-379 H232R): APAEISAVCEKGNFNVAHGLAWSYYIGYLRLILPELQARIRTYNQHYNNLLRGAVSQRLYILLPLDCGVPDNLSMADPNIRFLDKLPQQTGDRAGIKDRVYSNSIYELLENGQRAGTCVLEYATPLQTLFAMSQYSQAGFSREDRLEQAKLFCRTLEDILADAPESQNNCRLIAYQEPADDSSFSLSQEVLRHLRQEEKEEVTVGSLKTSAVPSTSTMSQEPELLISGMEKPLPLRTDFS
hSTING-R232, sequence (Q86WV6 140-379 H232R): as above

Row | SMILES | IC50 (hSTING-CTD) | Emax (STING protein) | IC50 (hSTING-WT) | WT_DSF_hSWAT Tm Shift (° C.) (hSTING-R232) | MOUSE DSF_6xHIS-SUMO Tm Shift (° C.) (mSTING-R232)
1 | CC(C)(C)c1ccc2c(=O)c3ccc(Cl)c(OC4CCC4)c3n(CC(=O)O)c2c1 [Compound 228] | > 1000 µM | < 5% | 20 to 100 µM | C (“C” = 2-7° C,) | –
2 | COc1c(Cl)ccc2c(=O)c3ccc(C4CCNCC4)cc3n(CC(=O)O)c12 [Compound 226] | > 1000 µM | – | 100 to 300 µM | C (“C” = 2-7° C,) | –
3 | O=C(O)Cn1c2cc(C3=CCCCC3)ccc2c(=O)c2ccc(Cl)c(Cl)c21 [Compound 116] | < 100 µM | – | – | – | –
4 | Cc1ccc2c(=O)c3ccc(Cl)c(Br)c3n(CC(=O)O)c2c1 [Compound 112] | < 100 µM | 5 to 25% | 20 to 100 µM | B (“B” = 0-2° C.) | C (“C” = 5-15° C.)
5 | Cc1ccc2c(=O)c3cc(-c4ccc(C(C)C)cc4)ccc3n(CC(=O)O)c2c1 [Compound 77] | 100 to 500 µM | – | – | – | –
6 | O=C(O)Cn1c2cc(NC3CCCC3)ccc2c(=O)c2ccc(Cl)c(Cl)c21 [Compound 118] | < 100 µM | – | – | – | –
7 | O=C(O)Cn1c2ccccc2c(=O)c2cc(CCC3CCCCC3)ccc21 [Compound 40] | < 100 µM | – | – | – | –
8 | CCc1cccc2c1c(=O)c1ccc(Cl)c(Cl)c1n2CC(=O)O [Compound 49] | > 1000 µM | – | – | – | –
9 | O=C(O)Cn1c2cc(NC3CCCCCC3)ccc2c(=O)c2ccc(Cl)c(Cl)c21 [Compound 122] | < 100 µM | > 50% | 20 to 100 µM | C (“C” = 2-7° C,) | D (“D” > 15° C.)
10 | O=C(O)Cn1c2ccccc2c(=O)c2ccc(Br)c(Cl)c21 [Compound 52] | 100 to 500 µM | – | – | – | –
11 | O=C(O)Cn1c2ccc(-c3ccccc3)cc2c(=O)c2ccc(Cl)c(Cl)c21 [Compound 125] | < 100 µM | < 5% | 20 to 100 µM | C (“C” = 2-7° C,) | B (“B” = 0-5° C.)
12 | Cc1cc2c(=O)c3ccc(Cl)c(Cl)c3n(CC(=O)O)c2cc1N1CCCCC1 [Compound 62] | > 1000 µM | – | – | – | –
13 | O=C(O)Cn1c2ccccc2c(=O)c2ccc(F)c(Cl)c21 [Compound 83] | > 1000 µM | – | – | – | –
14 | Cc1ccc2c(=O)c3cc(CCC4CCCCC4)ccc3n(CC(=O)O)c2c1 [Compound 76] | 100 to 500 µM | – | – | – | –
15 | O=C(O)Cn1c2ccccc2c(=O)c2ccc(Cl)c(F)c21 [Compound 84] | > 1000 µM | – | – | – | –
16 | COCc1c(Cl)ccc2c(=O)c3ccccc3n(CC(=O)O)c12 [Compound 229] | < 100 µM | < 5% | > 300 µM | B (“B” = 0-2° C.) | –
